Data published in article PMC10623271 (Heliyon, 2023).

Molecular target: α-glucosidase from Bacillus stearothermophilus
Assay: α-glucosidase assay
Format: biochemical
Details: positive control, pNPG, 20 min 60 °C, pH 6.8, ± SD

`C[C@H]1O[C@H](O[C@H]2[C@H](O)[C@@H](O)[C@@H](O[C@H]3[C@H](O)[C@@H](O)C(O)O[C@@H]3CO)O[C@@H]2CO)[C@H](O)[C@@H](O)[C@@H]1N[C@H]1C=C(CO)[C@@H](O)[C@H](O)[C@H]1O` (stereo partly shown) [Acarbose, acarbose] was tested, and the IC50 was 2.9 ± 0.4 nM.
